{"source": "patent EP0454060B1", "about": "“3-(Mercaptoalkyl)-quinazoline-2,4(1H,3H)-diones, processes for their preparation, and pharmaceutical compositions” (priority 1990, dated 1991)", "key": {"Adeno-Virus Typ 4": {"test_system": "Adeno-Virus Typ 4", "experiment": "Antiviral test in vitro", "format": "cell-based"}, "[1]": {"test_system": "primären Hühnerembryonalzellen (2 Tage alt)", "experiment": "Cell tolerance, microscopic reading", "format": "cell-based, Hühner", "set-up": "key: 0̸: Am 5. Tag der mikroskopischen Ablesung keine morphologischen Veränderungen der Zellen.; ++++: Komplette Veränderungen der Zellschicht in Form von Abrundung, Granulierung und Ablösen der Zellen von der Glaswand.; +++: Analoge Veränderungen bei 3/4 des Zellrasens.; ++: Analoge Veränderungen bei 1/2 des Zellrasens.; +: Analoge Veränderungen bei 1/4 des Zellrasens", "settings": "HEZ, reading day 5", "from_the_text": "(§1) 0̸ = Am 5. Tag der mikroskopischen Ablesung keine morphologischen Veränderungen der Zellen. ++++ = Komplette Veränderungen der Zellschicht in Form von Abrundung, Granulierung und Ablösen der Zellen von der Glaswand. +++ = Analoge Veränderungen bei 3/4 des Zellrasens. ++ = Analoge Veränderungen bei 1/2 des Zellrasens. + = Analoge Veränderungen bei 1/4 des Zellrasens."}, "[2]": {"test_system": "Vesicular-stomatitis Indiana", "experiment": "One-step replication cycle on chick embryo cells", "format": "cell-based", "settings": "Beispielreihe 2, HEZ"}, "Vaccinia Lister [3]": {"test_system": "Vaccinia Lister", "format": "cell-based, Vaccinia-Virus", "settings": "HEZ; for % Hemmung / Senkung des Virusertrages im Vergleich zur unbehandelten Kontrolle: Beispielreihe 2, Vaccinia Lister, mean of three experiments"}, "Vaccinia Lister [4]": {"test_system": "Vaccinia Lister", "experiment": "One-step replication cycle on permanent human kidney cell line", "settings": "mean of two experiments"}, "Influenza A/WSN [5]": {"test_system": "Influenza A/WSN", "experiment": "Plaque reduction test on primary HEZ", "settings": "mean of two experiments"}, "[6]": {"test_system": "Herpes simplex Typ 1 Kupka", "experiment": "One-step replication cycle on permanent human kidney cell line"}, "Coxsackie A 9-Virus": {"test_system": "Coxsackie A 9-Virus", "experiment": "Antiviral test in vitro", "format": "cell-based"}, "Influenza A/WSN [7]": {"test_system": "Influenza A/WSN", "experiment": "One-step replication cycle on chick embryo cells", "format": "cell-based, Influenza-Virus", "settings": "HEZ; for % Hemmung / Senkung des Virusertrages im Vergleich zur unbehandelten Kontrolle: Beispielreihe 2, Influenza A/WSN, mean of three experiments"}, "[8]": {"test_system": "Human-Fibroblasten (2 Tage alt)", "experiment": "Cell tolerance, microscopic reading", "format": "cell-based", "set-up": "key: 0̸: Am 5. Tag der mikroskopischen Ablesung keine morphologischen Veränderungen der Zellen.; ++++: Komplette Veränderungen der Zellschicht in Form von Abrundung, Granulierung und Ablösen der Zellen von der Glaswand.; +++: Analoge Veränderungen bei 3/4 des Zellrasens.; ++: Analoge Veränderungen bei 1/2 des Zellrasens.; +: Analoge Veränderungen bei 1/4 des Zellrasens", "settings": "HFi, reading day 5", "from_the_text": "as §1"}, "[9]": {"test_system": "MDBK (bovine Nierenzellen-Permanentzellinie)", "experiment": "Cell tolerance, microscopic reading", "format": "cell-based", "set-up": "key: 0̸: Am 5. Tag der mikroskopischen Ablesung keine morphologischen Veränderungen der Zellen.; ++++: Komplette Veränderungen der Zellschicht in Form von Abrundung, Granulierung und Ablösen der Zellen von der Glaswand.; +++: Analoge Veränderungen bei 3/4 des Zellrasens.; ++: Analoge Veränderungen bei 1/2 des Zellrasens.; +: Analoge Veränderungen bei 1/4 des Zellrasens", "settings": "MDKB, reading day 5", "from_the_text": "as §1"}, "[10]": {"test_system": "RH (humane Nierenzellen-Permanentzellinie)", "experiment": "Cell tolerance, microscopic reading", "format": "cell-based", "set-up": "key: 0̸: Am 5. Tag der mikroskopischen Ablesung keine morphologischen Veränderungen der Zellen.; ++++: Komplette Veränderungen der Zellschicht in Form von Abrundung, Granulierung und Ablösen der Zellen von der Glaswand.; +++: Analoge Veränderungen bei 3/4 des Zellrasens.; ++: Analoge Veränderungen bei 1/2 des Zellrasens.; +: Analoge Veränderungen bei 1/4 des Zellrasens", "settings": "reading day 5", "from_the_text": "as §1"}, "Vaccinia Lister [11]": {"test_system": "Vaccinia Lister", "experiment": "Plaque reduction test on primary HEZ", "settings": "mean of two experiments"}, "[12]": {"settings": "125 µmol/l in maintenance medium"}, "[13]": {"settings": "250 µmol/l in maintenance medium"}, "[14]": {"settings": "500 µmol/l in maintenance medium"}, "[15]": {"settings": "1000 µmol/l in maintenance medium"}, "[16]": {"settings": "62,5 µmol/l in maintenance medium"}, "[17]": {"settings": "250 µmol/l, mean of three experiments"}, "[18]": {"settings": "Beispielreihe 3, Herpes simplex Typ 1 Kupka, 125 µmol/l, mean of two experiments"}, "[19]": {"settings": "Beispielreihe 3, Herpes simplex Typ 1 Kupka, 250 µmol/l, mean of two experiments"}}, "note": "Read-outs that look alike come from different tables or passages of the source.", "data": [{"compound": "O=c1[nH]c2ccccc2c(=O)n1CCS", "note": "[Beispiel 1, 3-(2-Mercaptoethyl)-chinazolin-2,4(1H,3H)-dion]", "values": [{"measurement": "antivirale Wirkung", "setting": "Adeno-Virus Typ 4", "result": "nicht antiviral wirksam"}, {"measurement": "Zellverträglichkeit", "setting": "[1]; [12]", "result": "0̸"}, {"measurement": "Zellverträglichkeit", "setting": "[1]; [13]", "result": "0̸"}, {"measurement": "Zellverträglichkeit", "setting": "[1]; [14]", "result": "+"}, {"measurement": "Zellverträglichkeit", "setting": "[1]; [15]", "result": "+++"}, {"measurement": "Zellverträglichkeit", "setting": "[1]; [16]", "result": "0̸"}, {"measurement": "Senkung des Virusertrages im Vergleich zur unbehandelten Kontrolle", "setting": "[2]; 125 µmol/l, mean of three experiments", "result": "0,5 log10 TCID50/0,2 ml"}, {"measurement": "% Hemmung", "setting": "[2]; 125 µmol/l, n.s. = nicht signifikant", "result": "n. s."}, {"measurement": "% Hemmung", "setting": "[2]; [17]", "result": "99,9%"}, {"measurement": "Senkung des Virusertrages im Vergleich zur unbehandelten Kontrolle", "setting": "[2]; [17]", "result": "3,0 log10 TCID50/0,2 ml"}, {"measurement": "% Hemmung", "setting": "Vaccinia Lister [3]; 125 µmol/l", "result": "99,99%"}, {"measurement": "Senkung des Virusertrages im Vergleich zur unbehandelten Kontrolle", "setting": "Vaccinia Lister [3]; 125 µmol/l", "result": "4,0 log10 TCID50/0,2 ml"}, {"measurement": "% Hemmung", "setting": "Vaccinia Lister [3]; 250 µmol/l", "result": "> 99,99%"}, {"measurement": "Senkung des Virusertrages im Vergleich zur unbehandelten Kontrolle", "setting": "Vaccinia Lister [3]; 250 µmol/l", "result": "5,67 log10 TCID50/0,2 ml"}, {"measurement": "Senkung des Virusertrages im Vergleich zur unbehandelten Kontrolle", "setting": "Vaccinia Lister [3]; 31,25 µmol/l", "result": "1,0 log10 TCID50/0,2 ml"}, {"measurement": "% Hemmung", "setting": "Vaccinia Lister [3]; 31,25 µmol/l, 31.25 µM", "result": "99,0%"}, {"measurement": "Senkung des Virusertrages im Vergleich zur unbehandelten Kontrolle", "setting": "Vaccinia Lister [3]; 62,5 µmol/l", "result": "2,5 log10 TCID50/0,2 ml"}, {"measurement": "% Hemmung", "setting": "Vaccinia Lister [3]; 62,5 µmol/l, 62.5 µM", "result": "99,68%"}, {"measurement": "Therapeutischer Index = Verhältnis von maximal verträglicher und minimal wirksamer Dosis", "setting": "Vaccinia Lister [3]; für Vaccinia-Virus", "result": 8}, {"measurement": "% Hemmung", "setting": "Vaccinia Lister [4]; Beispielreihe 3, 125 µmol/l", "result": "> 99,99%"}, {"measurement": "Senkung des Virusertrages im Vergleich zur unbehandelten Kontrolle", "setting": "Vaccinia Lister [4]; Beispielreihe 3, 125 µmol/l", "result": "> 4,0 log10 TCID50/0,2 ml"}, {"measurement": "% Hemmung", "setting": "Vaccinia Lister [4]; Beispielreihe 3, 250 µmol/l", "result": "> 99,99%"}, {"measurement": "Senkung des Virusertrages im Vergleich zur unbehandelten Kontrolle", "setting": "Vaccinia Lister [4]; Beispielreihe 3, 250 µmol/l", "result": "> 4,0 log10 TCID50/0,2 ml"}, {"measurement": "Senkung des Virusertrages im Vergleich zur unbehandelten Kontrolle", "setting": "Vaccinia Lister [4]; Beispielreihe 3, 31,25 µmol/l", "result": "3,5 log10 TCID50/0,2 ml"}, {"measurement": "% Hemmung", "setting": "Vaccinia Lister [4]; Beispielreihe 3, 31,25 µmol/l, 31.25 µM", "result": "> 99,9%"}, {"measurement": "Senkung des Virusertrages im Vergleich zur unbehandelten Kontrolle", "setting": "Vaccinia Lister [4]; Beispielreihe 3, 62,5 µmol/l", "result": "4,0 log10 TCID50/0,2 ml"}, {"measurement": "% Hemmung", "setting": "Vaccinia Lister [4]; Beispielreihe 3, 62,5 µmol/l, 62.5 µM", "result": "99,99%"}, {"measurement": "Plaquereduktion in % zur Viruskontrolle auf primären HEZ", "setting": "Influenza A/WSN [5]; 125 µmol/l", "result": 98, "unit": "%"}, {"measurement": "Plaquereduktion in % zur Viruskontrolle auf primären HEZ", "setting": "Influenza A/WSN [5]; 250 µmol/l", "result": 100, "unit": "%"}, {"measurement": "Plaquereduktion in % zur Viruskontrolle auf primären HEZ", "setting": "Influenza A/WSN [5]; 31,25 µmol/l, 31.25 µM", "result": 85, "unit": "%"}, {"measurement": "Plaquereduktion in % zur Viruskontrolle auf primären HEZ", "setting": "Influenza A/WSN [5]; 62,5 µmol/l, 62.5 µM", "result": 92, "unit": "%"}, {"measurement": "% Hemmung", "setting": "[6]; [18]", "result": "> 99,99%"}, {"measurement": "Senkung des Virusertrages im Vergleich zur unbehandelten Kontrolle", "setting": "[6]; [18]", "result": "5,5 log10 TCID50/0,2 ml"}, {"measurement": "% Hemmung", "setting": "[6]; [19]", "result": "> 99,99%"}, {"measurement": "Senkung des Virusertrages im Vergleich zur unbehandelten Kontrolle", "setting": "[6]; [19]", "result": "6,0 log10 TCID50/0,2 ml"}, {"measurement": "Senkung des Virusertrages im Vergleich zur unbehandelten Kontrolle", "setting": "[6]; Beispielreihe 3, Herpes simplex Typ 1 Kupka, 62,5 µmol/l, mean of two experiments", "result": "0,75 log10 TCID50/0,2 ml"}, {"measurement": "% Hemmung", "setting": "[6]; Beispielreihe 3, Herpes simplex Typ 1 Kupka, 62,5 µmol/l, n. s. = nicht signifikant", "result": "n. s."}, {"measurement": "antivirale Wirkung", "setting": "Coxsackie A 9-Virus", "result": "nicht antiviral wirksam"}, {"measurement": "% Hemmung", "setting": "Influenza A/WSN [7]; 125 µmol/l", "result": "> 99,99%"}, {"measurement": "Senkung des Virusertrages im Vergleich zur unbehandelten Kontrolle", "setting": "Influenza A/WSN [7]; 125 µmol/l", "result": "4,67 log10 TCID50/0,2 ml"}, {"measurement": "% Hemmung", "setting": "Influenza A/WSN [7]; 250 µmol/l", "result": "> 99,99%"}, {"measurement": "Senkung des Virusertrages im Vergleich zur unbehandelten Kontrolle", "setting": "Influenza A/WSN [7]; 250 µmol/l", "result": "6,23 log10 TCID50/0,2 ml"}, {"measurement": "Senkung des Virusertrages im Vergleich zur unbehandelten Kontrolle", "setting": "Influenza A/WSN [7]; 31,25 µmol/l", "result": "2,5 log10 TCID50/0,2 ml"}, {"measurement": "% Hemmung", "setting": "Influenza A/WSN [7]; 31,25 µmol/l, 31.25 µM", "result": "99,50%"}, {"measurement": "Senkung des Virusertrages im Vergleich zur unbehandelten Kontrolle", "setting": "Influenza A/WSN [7]; 62,5 µmol/l", "result": "4,25 log10 TCID50/0,2 ml"}, {"measurement": "% Hemmung", "setting": "Influenza A/WSN [7]; 62,5 µmol/l, 62.5 µM", "result": "> 99,99%"}, {"measurement": "Therapeutischer Index = Verhältnis von maximal verträglicher und minimal wirksamer Dosis", "setting": "Influenza A/WSN [7]; für Influenza-Virus", "result": 8}, {"measurement": "Zellverträglichkeit", "setting": "[8]; [12]", "result": "0̸"}, {"measurement": "Zellverträglichkeit", "setting": "[8]; [13]", "result": "0̸"}, {"measurement": "Zellverträglichkeit", "setting": "[8]; [14]", "result": "0̸"}, {"measurement": "Zellverträglichkeit", "setting": "[8]; [15]", "result": "++"}, {"measurement": "Zellverträglichkeit", "setting": "[8]; [16]", "result": "0̸"}, {"measurement": "Zellverträglichkeit", "setting": "[9]; [12]", "result": "0̸"}, {"measurement": "Zellverträglichkeit", "setting": "[9]; [13]", "result": "0̸"}, {"measurement": "Zellverträglichkeit", "setting": "[9]; [14]", "result": "++"}, {"measurement": "Zellverträglichkeit", "setting": "[9]; [15]", "result": "++++"}, {"measurement": "Zellverträglichkeit", "setting": "[9]; [16]", "result": "0̸"}, {"measurement": "Zellverträglichkeit", "setting": "[10]; [12]", "result": "0̸"}, {"measurement": "Zellverträglichkeit", "setting": "[10]; [13]", "result": "0̸"}, {"measurement": "Zellverträglichkeit", "setting": "[10]; [14]", "result": "++"}, {"measurement": "Zellverträglichkeit", "setting": "[10]; [15]", "result": "+++"}, {"measurement": "Zellverträglichkeit", "setting": "[10]; [16]", "result": "0̸"}, {"measurement": "Plaquereduktion in % zur Viruskontrolle auf primären HEZ", "setting": "Vaccinia Lister [11]; 125 µmol/l", "result": 96, "unit": "%"}, {"measurement": "Plaquereduktion in % zur Viruskontrolle auf primären HEZ", "setting": "Vaccinia Lister [11]; 250 µmol/l", "result": 100, "unit": "%"}, {"measurement": "Plaquereduktion in % zur Viruskontrolle auf primären HEZ", "setting": "Vaccinia Lister [11]; 31,25 µmol/l, 31.25 µM", "result": 87, "unit": "%"}, {"measurement": "Plaquereduktion in % zur Viruskontrolle auf primären HEZ", "setting": "Vaccinia Lister [11]; 62,5 µmol/l, 62.5 µM", "result": 92, "unit": "%"}]}]}
